Key:
[1] = biological target: thymidine kinase, isolated from HSV1-infected HeLa cells (Human herpesvirus 1, UniProt P0DTH5); test: Competition between thymidine and acycloguanosine or compound of formula II for phosphorylation by the virus-induced thymidine kinase; assay type: biochemical; settings: for Percent monophosphate: 1200 min
[2] = biological target: HSV1-induced thymidine kinase (Human alphaherpesvirus 1 strain 17, UniProt P0DTH5); test: Kinetic parameters with purified viral thymidine kinase; assay type: biochemical; settings: compound of formula II to acycloguanosine
Cytomegalovirus = Cytomegalovirus plaque reduction assay on human MRC-5 monolayers; assay type: cell-based, Cytomegalovirus (Towne Strain); human MRC-5 cells
Experimental: The compound of formula II was effective in suppressing cytomegalovirus plaque formation on MRC-5 cell monolayers using 0.1 to 0.6 μg/ml.
^d Plaque reduction assay on human MRC5 cell monolayers

[3] = test system: Herpes simplex virus type I (HSV-1), strain Schooler; test: Treatment of Herpes simplex virus infection in mice, repeat experiment (Table III); assay type: in vivo, HSV-1; ICR/Ha mice; settings: for Percent Survival: at 15 days
Experimental: Twenty gram ICR/Ha mice were injected intraperitoneally (ip) with 0.5 ml of a 10^-5 dilution of a stock preparation of Herpes simplex virus type I (HSV-1), strain Schooler. This virus challenge infected each animal with approximately 100 LD50. […] The placebo group was composed of 45 animals. All compounds were solubilized in physiological saline, pH 11.5.

Adeno Type 2 = test: Plaque inhibition, Adeno Type 2 on BSC cells (Table V); assay type: cell-based, Adeno Type 2; BSC (monkey) cells; settings: for EC50: Primates, read-out: ED50, concentration required for 50% plaque inhibition, Adeno Type 2, BSC
Experimental: ED50 values developed for the cyclic monophosphate are compared on a weight basis to those established for the compound of Formula II and acyclovir.
Adeno Type 2 was assayed on BSC (monkey) cell cultures.

HSV-1 (383R1) [4] = assay type: cell-based; settings: HSV-1 (383R1) vs wild type
HSV-1 (383R1) [5] = test: Phosphorylation capacity of HSV-1 (383R1); assay type: biochemical
[6] = test system: Herpes simplex virus type 2 (Strain Curtis); test: Vaginal Herpes simplex virus type 2 infection in mice, oral treatment (Table XII); assay type: in vivo, Herpes simplex virus type 2; ICR/Ha female mice; settings: for Percent Survival: at 19 days
Experimental: Groups of 10 animals were treated twice daily for ten days by oral gavage using acycloquanosine or the compound of formula II at final daily doses of 50, 12.5, 3.1, 0.8 or 0.2 mg/kg starting immediately following infection. The average number of days to infection and the average days of survival were determined for each group and compared to an infected, placebo-treated group.

HSV-1 WT = test: 50% plaque reduction of HSV-1 wild type in 3T3 TK- and 3T3 TK-/TK+HSV cells (Table VIII); settings: for EC50: Human alphaherpesvirus 1, in Mus musculus, read-out: Antiviral Concentration, 50% plaque reduction
HSV1 = test: In vitro assay, viral cytopathology of HSV1 in primary rabbit kidney cells; assay type: cell-based; settings: Human alphaherpesvirus 1; days 5 and 7; read-out: Min. Effective Dose against HSV1
HSV2 = test: In vitro assay, viral cytopathology of HSV2 in primary rabbit kidney cells; assay type: cell-based; settings: Human alphaherpesvirus 2; days 5 and 7; read-out: Min. Effective Dose against HSV2
[7] = test system: primary rabbit kidney cell cultures; test: Toxicity controls in primary rabbit kidney cell cultures; assay type: cell-based; settings: at 100 μg/ml
HSV1 (Strain Schooler) = test: In vivo assay, intraperitoneal HSV1 infection of mice, subcutaneous treatment (Table IV); set-up: species or system HSV1; ICR/Ha mice; settings: for Percent Survival: 15 days
Experimental: Twenty gram ICR/Ha mice were infected with approximately 100 lethal doses (100LD50) of HSV1 (Strain Schooler) by the intraperitoneal route. Groups of 10 infected animals were treated twice daily for four days starting immediately after infection by subcutaneous injection at final daily doses of 50, 12.5, 3.1, 0.8, 0.2, 0.05 and 0.0125 mg/kg of potassium 9-(1,3-dihydroxy-2-propoxymethyl)guanine cyclic monophosphate. The mice were observed daily for 15 days at the same time each day and the day of death recorded for each animal.

equine herpes virus = test: Antiviral activity against equine herpes virus; assay type: cell-based; settings: data not shown, read-out: ED50 (the source's name)
[8] = test system: feline rhinotracheitis virus; test: Antiviral activity against feline rhinotracheitis virus; assay type: cell-based; settings: data not shown, read-out: ED50 (the source's name)
influenza A = test: RNA virus replication, influenza A; assay type: cell-based
vesicular stomatitis = assay type: cell-based
polio = assay type: cell-based
HSV-1 = test: Intraperitoneal HSV-1 infection in mice, oral treatment (Table VI); assay type: in vivo, HSV-1; ICR/Ha mice
HSV-2 = test: Vaginal HSV-2 infection in mice, oral treatment (Table VI); assay type: in vivo, HSV-2; ICR/Ha mice

thymidine kinase, isolated from HSV1-infected HeLa cells, sequence (P0DTH5 whole entry): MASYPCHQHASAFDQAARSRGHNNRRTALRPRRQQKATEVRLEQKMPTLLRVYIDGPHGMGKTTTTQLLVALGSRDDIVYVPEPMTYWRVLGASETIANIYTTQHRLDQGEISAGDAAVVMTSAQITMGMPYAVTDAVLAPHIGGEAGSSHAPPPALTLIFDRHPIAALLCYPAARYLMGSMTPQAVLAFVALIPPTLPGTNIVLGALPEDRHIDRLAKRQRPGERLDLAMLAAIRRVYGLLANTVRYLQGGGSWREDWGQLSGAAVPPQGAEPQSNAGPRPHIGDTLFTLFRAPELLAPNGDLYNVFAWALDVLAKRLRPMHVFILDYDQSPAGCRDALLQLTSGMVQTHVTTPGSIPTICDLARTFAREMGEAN
HSV1-induced thymidine kinase, sequence (P0DTH5 whole entry): as above

Compound: Nc1nc2c(ncn2COC(CO)CO)c(=O)[nH]1 [Compound of Formula II, 9-(1,3-Dihydroxy-2-propoxymethyl)guanine]
- phosphorylation in presence of a large excess of thymidine ([1]; large excess of thymidine): is phosphorylated by the viral thymidine kinase even in the presence of a large excess of thymidine
- Percent monophosphate ([1]; plus 2.5 mM thymidine): 23%
- Percent monophosphate ([1]; without thymidine): 93%
- relative efficiency as substrate (Vmax /Km) vs acycloguanosine [2]: 30 to 1
- calculated average relative potency to acycloguanosine (95% CI) (Cytomegalovirus): 28.6
- Avg. Survival Time ([3]; 0.2 mg/kg/day s.c.): 9.0 days
- Percent Survival ([3]; 0.2 mg/kg/day s.c.): 26%
- Avg. Survival Time ([3]; 0.8 mg/kg/day s.c.): 9.8 days
- Percent Survival ([3]; 0.8 mg/kg/day s.c.): 40%
- Avg. Survival Time ([3]; 3.1 mg/kg/day s.c.): 11.8 days
- Percent Survival ([3]; 3.1 mg/kg/day s.c.): 46%
- Avg. Survival Time ([3]; 12.5 mg/kg/day s.c.): 17.2 days
- Percent Survival ([3]; 12.5 mg/kg/day s.c.): 93%
- Avg. Survival Time ([3]; 50 mg/kg/day s.c.): 19.5 days
- Percent Survival ([3]; 50 mg/kg/day s.c.): 100%
- calculated average relative potency to acycloguanosine (95% CI) ([3]; combined results of both mouse experiments): 287.0
- EC50 (Adeno Type 2): 50 µg/mL
- less susceptible than wild type (HSV-1 (383R1) [4]): approximately 100 fold
- phosphorylation by HSV-1 (383R1) (HSV-1 (383R1) [5]): incapable of phosphorylation
- Avg. Survival Time ([6]; 0.2 mg/kg/day oral): 12.1 days
- Percent Survival ([6]; 0.2 mg/kg/day oral): 30%
- Avg. Survival Time ([6]; 0.8 mg/kg/day oral): 15.1 days
- Percent Survival ([6]; 0.8 mg/kg/day oral): 40%
- Avg. Survival Time ([6]; 3.1 mg/kg/day oral): 19.1 days
- Percent Survival ([6]; 3.1 mg/kg/day oral): 75%
- Avg. Survival Time ([6]; 12.5 mg/kg/day oral): 24.7 days
- Percent Survival ([6]; 12.5 mg/kg/day oral): 100%
- number of days to infection vs placebo ([6]; 50 mg/kg and 12.5 mg/kg): statistically significant increases in the number of days to infection
- signs of herpetic infection ([6]; 50 mg/kg, duration of the test): remained free of signs of herpetic infection
- Avg. Survival Time ([6]; 50 mg/kg/day oral): 24.7 days
- Percent Survival ([6]; 50 mg/kg/day oral): 100%
- survival time vs placebo ([6]; 50, 12.5, 3.1 and 0.8 mg/kg): statistically significant increase in survival time
- survival rate vs placebo ([6]; 50, 12.5 and 3.1 mg/kg): statistically significantly increased
- relative potency to acycloguanosine as measured by survival ([6]; statistically significant): 28.1
- relative potency to acycloguanosine as measured by time to infection ([6]; statistically significant): 4.14
- EC50 (HSV-1 WT): 0.06 µg/mL

Compound: Nc1nc2c(ncn2COC2COP(=O)(O)OC2)c(=O)[nH]1 (stereo not drawn) [Cyclic Monophosphate, Potassium 9-(1,3-dihydroxy-2-propoxymethyl)guanine cyclic monophosphate]
- minimal effective concentration (HSV1): 12.5 to 25 µg/mL
- minimal effective concentration (HSV2): 50 to 100 µg/mL
- Toxicity [7]: Not tox.
- Ave. Survival Time (HSV1 (Strain Schooler); Expt. 1, 0.2 mg/kg/day s.c.): 13.5 days
- Percent Survival (HSV1 (Strain Schooler); Expt. 1, 0.2 mg/kg/day s.c.): 70%
- Ave. Survival Time (HSV1 (Strain Schooler); Expt. 1, 0.8 mg/kg/day s.c.): 10.5 days
- Percent Survival (HSV1 (Strain Schooler); Expt. 1, 0.8 mg/kg/day s.c.): 40%
- Ave. Survival Time (HSV1 (Strain Schooler); Expt. 1, 3.1 mg/kg/day s.c.): 10.7 days
- Percent Survival (HSV1 (Strain Schooler); Expt. 1, 3.1 mg/kg/day s.c.): 20%
- Ave. Survival Time (HSV1 (Strain Schooler); Expt. 1, 12.5 mg/kg/day s.c.): 19.5 days
- Percent Survival (HSV1 (Strain Schooler); Expt. 1, 12.5 mg/kg/day s.c.): 100%
- Ave. Survival Time (HSV1 (Strain Schooler); Expt. 1, 50 mg/kg/day s.c.): 19.5 days
- Percent Survival (HSV1 (Strain Schooler); Expt. 1, 50 mg/kg/day s.c.): 100%
- Ave. Survival Time (HSV1 (Strain Schooler); Expt. 2, 0.0125 mg/kg/day s.c.): 6.3 days
- Percent Survival (HSV1 (Strain Schooler); Expt. 2, 0.0125 mg/kg/day s.c.): 10%
- Ave. Survival Time (HSV1 (Strain Schooler); Expt. 2, 0.05 mg/kg/day s.c.): 6.0 days
- Percent Survival (HSV1 (Strain Schooler); Expt. 2, 0.05 mg/kg/day s.c.): 0%
- Ave. Survival Time (HSV1 (Strain Schooler); Expt. 2, 0.2 mg/kg/day s.c.): 8.3 days
- Percent Survival (HSV1 (Strain Schooler); Expt. 2, 0.2 mg/kg/day s.c.): 30%
- Ave. Survival Time (HSV1 (Strain Schooler); Expt. 2, 0.8 mg/kg/day s.c.): 7.4 days
- Percent Survival (HSV1 (Strain Schooler); Expt. 2, 0.8 mg/kg/day s.c.): 0%
- Ave. Survival Time (HSV1 (Strain Schooler); Expt. 2, 3.1 mg/kg/day s.c.): 11.5 days
- Percent Survival (HSV1 (Strain Schooler); Expt. 2, 3.1 mg/kg/day s.c.): 50%
- Ave. Survival Time (HSV1 (Strain Schooler); Expt. 2, 12.5 mg/kg/day s.c.): 15.0 days
- Percent Survival (HSV1 (Strain Schooler); Expt. 2, 12.5 mg/kg/day s.c.): 60%
- EC50 (Adeno Type 2): 3 µg/mL
- inhibition of DNA virus (Adeno Type 2; adenovirus): inhibitory
- EC50 (equine herpes virus): ~1 µg/mL
- EC50 [8]: ~1 µg/mL
- effect on RNA virus replication (influenza A): not effective
- effect on RNA virus replication (vesicular stomatitis): not effective
- effect on RNA virus replication (polio): not effective
- minimal effective dose (HSV-1; Human alphaherpesvirus 1, intraperitoneal infection, oral treatment, read-out: Min. Effective Dose): 0.8 to 3.1 mg/kg/day
- efficacy relative to acyclovir by minimum effective dose (HSV-1; intraperitoneal): consistently more efficacious than acyclovir
- antiviral efficacy in the herpes-mouse infection model relative to compound of Formula II (HSV-1; not shown in Table VI): generally equivalent
- minimal effective dose (HSV-2; Human alphaherpesvirus 2, vaginal infection, oral treatment, read-out: Min. Effective Dose): 0.8 mg/kg/day
- efficacy relative to acyclovir by minimum effective dose (HSV-2; vaginal): consistently more efficacious than acyclovir
- susceptibility of HSV-1 greater than HSV-1 (383R1) (HSV-1 WT): about 5 fold
- EC50 (HSV-1 WT): 0.2 µg/mL

Source: patent US4816447A, “Anti-viral guanine compounds” (priority 1984, dated 1989)
